Assay results from the supplement of paper PMC8920030.

How the values were obtained:
Details in all cases: growth mode: biofilm, 24 h; exposure time: 24 h
tobramycin [1] = compound: T1, NC[C@H]1O[C@H](O[C@H]2[C@H](O)[C@@H](O[C@H]3O[C@H](CO)[C@@H](O)[C@H](N)[C@H]3O)[C@H](N)C[C@@H]2N)[C@H](N)C[C@@H]1O [tobramycin]; test: minimum concentration eradicating biofilm below detection limit (MCK-E); higher = more biofilm tolerance
Description: (§1)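 Clinical P. aeruginosa isolates were grown as static biofilms for 24 h at 37 °C in LB in half-area 96-well plates, then exposed for 24 h to tobramycin at 1, 4, 16, 64, 256 or […]. Surviving CFU were counted by spotting serial dilutions. MCK is the lowest tested concentration giving the stated log reduction in CFU versus an untreated control; '>1024' means the reduction was not reached at the top dose, and 1 is the lowest dose tested (≤1).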

tobramycin [2] = compound: T1, tobramycin; test: minimum concentration of killing, 1-log CFU reduction of biofilm (MCK90); higher = more biofilm tolerance
Description: as §1

tobramycin [3] = compound: T1, tobramycin; test: minimum concentration of killing, 2-log CFU reduction of biofilm (MCK99); higher = more biofilm tolerance
Description: as §1

tobramycin [4] = compound: T1, tobramycin; test: minimum concentration of killing, 4-log CFU reduction of biofilm (MCK99.99); higher = more biofilm tolerance
Description: as §1

colistin [5] = compound: T2, CCC(C)CCCC(=O)N[C@@H](CCN)C(=O)N[C@H](C(=O)N[C@@H](CCN)C(=O)N[C@H]1CCNC(=O)[C@H]([C@@H](C)O)NC(=O)[C@H](CCN)NC(=O)[C@H](CCN)NC(=O)[C@H](CC(C)C)NC(=O)[C@@H](CC(C)C)NC(=O)[C@H](CCN)NC1=O)[C@@H](C)O [colistin]; test: minimum concentration eradicating biofilm below detection limit (MCK-E); higher = more biofilm tolerance
Description: as §1, with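 “colistin” for “tobramycin”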

colistin [6] = compound: T2, colistin; test: minimum concentration of killing, 1-log CFU reduction of biofilm (MCK90); higher = more biofilm tolerance
Description: as §1, with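 “colistin” for “tobramycin”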

colistin [7] = compound: T2, colistin; test: minimum concentration of killing, 2-log CFU reduction of biofilm (MCK99); higher = more biofilm tolerance
Description: as §1, with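 “colistin” for “tobramycin”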

colistin [8] = compound: T2, colistin; test: minimum concentration of killing, 4-log CFU reduction of biofilm (MCK99.99); higher = more biofilm tolerance
Description: as §1, with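 “colistin” for “tobramycin”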

Test System	minimum concentration eradicating biofilm below detection limit (tobramycin [1])	minimum concentration of killing (tobramycin [2])	minimum concentration of killing (tobramycin [3])	minimum concentration of killing (tobramycin [4])	minimum concentration eradicating biofilm below detection limit (colistin [5])	minimum concentration of killing (colistin [6])	minimum concentration of killing (colistin [7])	minimum concentration of killing (colistin [8])
Pseudomonas aeruginosa clinical isolate F1997	> 1020 µg/mL	16 µg/mL	64 µg/mL	1020 µg/mL				
Pseudomonas aeruginosa clinical isolate F2003	1020 µg/mL	≤ 1 µg/mL	4 µg/mL	256 µg/mL	1020 µg/mL	64 µg/mL	256 µg/mL	1020 µg/mL
Pseudomonas aeruginosa clinical isolate CH2658	256 µg/mL	4 µg/mL	16 µg/mL	64 µg/mL	256 µg/mL	64 µg/mL	256 µg/mL	256 µg/mL
Pseudomonas aeruginosa clinical isolate ESP050	1020 µg/mL	64 µg/mL	1020 µg/mL	1020 µg/mL	256 µg/mL	64 µg/mL	256 µg/mL	256 µg/mL
Pseudomonas aeruginosa clinical isolate ESP009	1020 µg/mL	16 µg/mL	16 µg/mL	256 µg/mL	64 µg/mL	64 µg/mL	64 µg/mL	64 µg/mL
Pseudomonas aeruginosa clinical isolate F2034					256 µg/mL	64 µg/mL	64 µg/mL	256 µg/mL
Pseudomonas aeruginosa clinical isolate ESP035	1020 µg/mL	256 µg/mL	256 µg/mL	256 µg/mL	256 µg/mL	64 µg/mL	256 µg/mL	256 µg/mL
Pseudomonas aeruginosa clinical isolate CH2522	1020 µg/mL	16 µg/mL	16 µg/mL	1020 µg/mL	256 µg/mL	64 µg/mL	64 µg/mL	256 µg/mL
Pseudomonas aeruginosa clinical isolate F1659	1020 µg/mL	4 µg/mL	16 µg/mL	256 µg/mL		16 µg/mL	64 µg/mL	64 µg/mL
Pseudomonas aeruginosa clinical isolate F2035					1020 µg/mL	64 µg/mL	64 µg/mL	256 µg/mL
Pseudomonas aeruginosa clinical isolate F1689		4 µg/mL	4 µg/mL					
Pseudomonas aeruginosa clinical isolate F2029	256 µg/mL			256 µg/mL	256 µg/mL	256 µg/mL	256 µg/mL	256 µg/mL
Pseudomonas aeruginosa clinical isolate CH5548	64 µg/mL	4 µg/mL	4 µg/mL	16 µg/mL				
Pseudomonas aeruginosa clinical isolate CH5531	1020 µg/mL	16 µg/mL	256 µg/mL	256 µg/mL				
Pseudomonas aeruginosa clinical isolate F1748	256 µg/mL	4 µg/mL	16 µg/mL	16 µg/mL		256 µg/mL	256 µg/mL	256 µg/mL
Pseudomonas aeruginosa clinical isolate F2026	> 1020 µg/mL		256 µg/mL	> 1020 µg/mL	256 µg/mL	256 µg/mL	256 µg/mL	256 µg/mL
Pseudomonas aeruginosa clinical isolate F1883		64 µg/mL	256 µg/mL		1020 µg/mL	16 µg/mL	256 µg/mL	1020 µg/mL
Pseudomonas aeruginosa clinical isolate ESP057	256 µg/mL	≤ 1 µg/mL		256 µg/mL	256 µg/mL	256 µg/mL	256 µg/mL	256 µg/mL
Pseudomonas aeruginosa clinical isolate F2044					256 µg/mL			
Pseudomonas aeruginosa clinical isolate F1801	256 µg/mL	≤ 1 µg/mL	4 µg/mL	256 µg/mL		256 µg/mL	256 µg/mL	256 µg/mL
Pseudomonas aeruginosa clinical isolate CH5591	> 1020 µg/mL	1020 µg/mL	1020 µg/mL	> 1020 µg/mL				
Pseudomonas aeruginosa clinical isolate F1894	256 µg/mL	4 µg/mL	16 µg/mL		256 µg/mL	256 µg/mL	256 µg/mL	256 µg/mL
Pseudomonas aeruginosa clinical isolate F2059					256 µg/mL			
Pseudomonas aeruginosa clinical isolate F2045					> 1020 µg/mL			
Pseudomonas aeruginosa clinical isolate F2030				1020 µg/mL	256 µg/mL	64 µg/mL	256 µg/mL	256 µg/mL
